Measurements as given in PubChem BioAssay AID2060488 (Molecular Pharmacology Branch, DTP, NCI, 2025).

Test system: 966289-007-R4-J1-PDC complex spheroid viability
Experiment: Anticancer human tumor 966289-007-R4-J1-PDC patient-derived pancreatic adenocarcinoma cell line growth inhibition [GQUAD]
Details: for IC50: curve of first compound; for viability, T/C: stronger effect = lower value
From the text: DNA G-quadruplex Stabilizer Agents in Combinations in Complex Spheroids
A high-throughput screen of multi-cell type tumor spheroids was designed to identify active combinations of DNA G-quadruplex stabilizer agents and targeted small molecules. Complex spheroids include a stromal component modeled by human endothelial cells (HUVEC) and fibroblasts modeled by human mesenchymal stem cells (MSCs). The concentration ranges selected for each drug and investigational agent were based upon clinically achievable concentrations if the clinical Cmax of the agent was known.
Compounds. The drugs and investigational agents: pidnarulex (CX-5461; NSC782164), APTO-253 (NSC789042), BRACO-19 (NSC847499), peposertib (NSC802822), ceralasertib (NSC780249), elimusertib (NSC800525), camonsertib (NSC841442), AZD-1390 (NSC803789), olaparib (NSC753686), talazoparib (NSC767125), ART-558 (NSC835418), sotorasib (NSC818433), MRTX-1133 (NSC836407), SN-38 (NSC673596), topotecan (NSC609699), etoposide (NSC141540), doxorubicin (NSC123127), gemcitabine (NSC613327), 5-fluorouracil (NSC19893), paclitaxel (NSC125973), vemurafenib (NSC761431), panobinostat (NSC761190), R-306465 (JNJ-16241199; NSC773264), adavosertib (NSC754352), TP-3654 (NSC805149), carboplatin (NSC241240), KSQ-4279 (NSC840948), and staurosporine (NSC755774) were obtained from the National Cancer Institute (NCI) Developmental Therapeutics Program Chemical Repository (34). The FDA-approved anticancer drug set is available from the NCI Developmental Therapeutics Program. […] The stock solutions were prepared in dimethyl sulfoxide (DMSO, Sigma-Aldrich, St. Louis, MO, cat. D2650) at 800-fold the tested concentration and stored at -70 degrees C prior to their use. All drugs and investigational agents were tested over a range starting from a high concentration at or near the clinical Cmax and decreasing in half-log increments. If the clinical Cmax for an agent had not been determined, the highest concentration tested was 10 microM.
2.3 Cell Culture. All cells were maintained in an incubator at 37 degrees C and 5% CO2 with 95% humidity. The PDC lines were cultured according to standard operating procedures established by the NCI PDMR. All PDCs were thawed and cultured in Matrigel-coated flasks prepared with a working solution of 1X Ham's F-12 nutrient mix, without supplementation (Invitrogen, cat. 11765054), 100 U/mL penicillin-streptomycin (Invitrogen, cat. 15140122), and 2.5% Matrigel (Corning Inc., cat. 354248) for the first three passages. The 857933-349-R-J2-PDC line was cultured in 6C/Colon 1B media, which includes advanced DMEM/F-12 (Thermo Fisher Scientific, cat. 12634028), 10 mM HEPES (Thermo Fisher Scientific, cat. 15630080), 1X GlutaMAX supplement (Thermo Fisher Scientific, cat. 35050061), 0.1 mg/mL primocin (InvivoGen, cat. ant-pm-2), 10% defined fetal bovine serum, heat inactivated (HyClone Laboratories Inc., cat. SH30070.03HI), 50% L-WRN conditioned media (ATCC, cat. CRL-3276), 1.25 mM N-Acetyl-L-cysteine (Sigma-Aldrich, cat. A9165), 10 mM nicotinamide (Sigma-Aldrich, cat. N0636), 1X B-27 supplement (Thermo Fisher Scientific, cat. 17504044), 1X N-2 supplement (Thermo Fisher Scientific, cat. 17502048), 10 microM Y-27632 dihydrochloride (Tocris Bioscience, cat. 1254), and 50 ng/mL human EGF recombinant protein (Thermo Fisher Scientific, cat. PHG0311). The 485176-168-R4-J1-PDC line was cultured in Panc media, which includes all 6C/Colon 1B media components plus 100 ng/mL human FGF-10 (Thermo Fisher Scientific, cat. 100-26), 500 nM SB-431542 (Selleckchem, cat. S1067), and gastrin (Tocris, cat. 3006).
[…]

[1] = second compound 0.0316 µM, first compound 0.0316 µM
[2] = second compound 0.0316 µM, first compound 0.1 µM
[3] = second compound 0.0316 µM, first compound 0.316 µM
[4] = second compound 0.0316 µM, first compound 1 µM
[5] = second compound 0.0316 µM, first compound 3.16 µM
[6] = second compound 0.0316 µM, first compound 10 µM
[7] = second compound 0.1 µM, first compound 0.0316 µM
[8] = second compound 0.1 µM, first compound 0.1 µM
[9] = second compound 0.1 µM, first compound 0.316 µM
[10] = second compound 0.1 µM, first compound 1 µM
[11] = second compound 0.1 µM, first compound 3.16 µM
[12] = second compound 0.1 µM, first compound 10 µM
[13] = second compound 0.316 µM, first compound 0.0316 µM
[14] = second compound 0.316 µM, first compound 0.1 µM
[15] = second compound 0.316 µM, first compound 0.316 µM
[16] = second compound 0.316 µM, first compound 1 µM
[17] = second compound 0.316 µM, first compound 3.16 µM
[18] = second compound 0.316 µM, first compound 10 µM
[19] = second compound 1 µM, first compound 0.0316 µM
[20] = second compound 1 µM, first compound 0.1 µM
[21] = second compound 1 µM, first compound 0.316 µM
[22] = second compound 1 µM, first compound 1 µM
[23] = second compound 1 µM, first compound 3.16 µM
[24] = second compound 1 µM, first compound 10 µM
[25] = second compound 3.16 µM, first compound 0.0316 µM
[26] = second compound 3.16 µM, first compound 0.1 µM
[27] = second compound 3.16 µM, first compound 0.316 µM
[28] = second compound 3.16 µM, first compound 1 µM
[29] = second compound 3.16 µM, first compound 3.16 µM
[30] = second compound 3.16 µM, first compound 10 µM
[31] = second compound 10 µM, first compound 0.0316 µM
[32] = second compound 10 µM, first compound 0.1 µM
[33] = second compound 10 µM, first compound 0.316 µM
[34] = second compound 10 µM, first compound 1 µM
[35] = second compound 10 µM, first compound 3.16 µM
[36] = second compound 10 µM, first compound 10 µM
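Note: spheroids exposed to the agents for seven days before readout.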
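Throughout, for viability, T/C: percent viability relative to DMSO vehicle control wells taken as 100%.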

Cc1cccc(N(C)C(=O)C2C(O)CCN2c2nc(C)cc(C(F)(F)F)c2C#N)c1 (centres undefined) + Cc1cnc(CNC(=O)c2c(=O)c3ccc(N4CCCN(C)CC4)nc3n3c2sc2ccccc23)cn1
IC50 (second compound 0.0316 µM): > 10000 nM
IC50 (second compound 0.1 µM): < 31.6 nM
IC50 (second compound 0.316 µM): < 31.6 nM
IC50 (second compound 1 µM): < 31.6 nM
IC50 (second compound 3.16 µM): < 31.6 nM
IC50 (second compound 10 µM): < 31.6 nM
viability, T/C [1]: 111%
viability, T/C [2]: 102%
viability, T/C [3]: 103%
viability, T/C [4]: 102%
viability, T/C [5]: 110%
viability, T/C [6]: 106%
viability, T/C [7]: 40.1%
viability, T/C [8]: 30.9%
viability, T/C [9]: 36.3%
viability, T/C [10]: 34.9%
viability, T/C [11]: 36.2%
viability, T/C [12]: 40.1%
viability, T/C [13]: 12.1%
viability, T/C [14]: 11.4%
viability, T/C [15]: 10.2%
viability, T/C [16]: 13.8%
viability, T/C [17]: 12.7%
viability, T/C [18]: 13.3%
viability, T/C [19]: 6.47%
viability, T/C [20]: 6.97%
viability, T/C [21]: 7.01%
viability, T/C [22]: 6.54%
viability, T/C [23]: 6.3%
viability, T/C [24]: 7.05%
viability, T/C [25]: 5.3%
viability, T/C [26]: 4.93%
viability, T/C [27]: 4.77%
viability, T/C [28]: 5.55%
viability, T/C [29]: 5.79%
viability, T/C [30]: 5.35%
viability, T/C [31]: 0.13%
viability, T/C [32]: 0.18%
viability, T/C [33]: 0.17%
viability, T/C [34]: 0.17%
viability, T/C [35]: 0.51%
viability, T/C [36]: 0.38%

O=C(NO)c1cnc(N2CCN(S(=O)(=O)c3ccc4ccccc4c3)CC2)nc1 + Cc1cnc(CNC(=O)c2c(=O)c3ccc(N4CCCN(C)CC4)nc3n3c2sc2ccccc23)cn1
IC50 (second compound 0.0316 µM): 209 nM
IC50 (second compound 0.1 µM): < 31.6 nM
IC50 (second compound 0.316 µM): < 31.6 nM
IC50 (second compound 1 µM): < 31.6 nM
IC50 (second compound 3.16 µM): < 31.6 nM
IC50 (second compound 10 µM): < 31.6 nM
viability, T/C [1]: 96.4%
viability, T/C [2]: 87.3%
viability, T/C [3]: 28.8%
viability, T/C [4]: 8.77%
viability, T/C [5]: 2.84%
viability, T/C [6]: 0.33%
viability, T/C [7]: 31.3%
viability, T/C [8]: 31.9%
viability, T/C [9]: 10.8%
viability, T/C [10]: 4.55%
viability, T/C [11]: 2.02%
viability, T/C [12]: 0.31%
viability, T/C [13]: 7.24%
viability, T/C [14]: 5.47%
viability, T/C [15]: 3.67%
viability, T/C [16]: 2.76%
viability, T/C [17]: 1.03%
viability, T/C [18]: 0.05%
viability, T/C [19]: 4.18%
viability, T/C [20]: 2.98%
viability, T/C [21]: 3.68%
viability, T/C [22]: 0.86%
viability, T/C [23]: 0.32%
viability, T/C [24]: 0.05%
viability, T/C [25]: 1.88%
viability, T/C [26]: 2.14%
viability, T/C [27]: 0.08%
viability, T/C [28]: 0.05%
viability, T/C [29]: 0.06%
viability, T/C [30]: 0.1%
viability, T/C [31]: 0.03%
viability, T/C [32]: 0.09%
viability, T/C [33]: 0.1%
viability, T/C [34]: 0.09%
viability, T/C [35]: 0.53%
viability, T/C [36]: 0.23%
